In patent US20260191998A1, “INDOLE PHTHALOCYANINE COMPOUND, PREPARATION METHOD THEREFOR, AND USE THEREOF IN TUMOR DIAGNOSIS IMAGING” (JIANGSU YAHONG MEDITECH CO., LTD., priority 2022, published 2026):
pIC50: −log10 of the molar value. Structures can show the parent of a compound that is named as a salt.

How the values were obtained:
[1] = Kinetic solubility in phosphate buffered saline (HPLC); assay type: physicochemical; conditions: phosphate buffered saline (PBS), aqueous buffer, kinetic from dmso stock, 25° C., shaken 2 hours, from 10 mM DMSO stock
Protocol: The compounds were weighed in an appropriate amount and dissolved in DMSO to prepare a 10 mM stock solution. 30 μL of the stock solution was taken and 970 μL of phosphate buffered saline solution (PBS) was added thereto. The solution was shaken at 25° C. on a thermostatic mixer for 2 hours, and centrifuged at 12000 rpm for 10 minutes. The supernatant was taken, and the kinetic solubility of each compound in phosphate buffered saline solution (PBS) was determined by Waters Acquity Arc HPLC.

[2] = biological target: hERG channels (Homo sapiens, UniProt Q12809); test: hERG whole-cell patch clamp in HEK 293 cells stably expressing hERG; assay type: cell-based; conditions: HEK 293 stably expressing hERG, tail current
Chain of hERG channels (Q12809 whole entry): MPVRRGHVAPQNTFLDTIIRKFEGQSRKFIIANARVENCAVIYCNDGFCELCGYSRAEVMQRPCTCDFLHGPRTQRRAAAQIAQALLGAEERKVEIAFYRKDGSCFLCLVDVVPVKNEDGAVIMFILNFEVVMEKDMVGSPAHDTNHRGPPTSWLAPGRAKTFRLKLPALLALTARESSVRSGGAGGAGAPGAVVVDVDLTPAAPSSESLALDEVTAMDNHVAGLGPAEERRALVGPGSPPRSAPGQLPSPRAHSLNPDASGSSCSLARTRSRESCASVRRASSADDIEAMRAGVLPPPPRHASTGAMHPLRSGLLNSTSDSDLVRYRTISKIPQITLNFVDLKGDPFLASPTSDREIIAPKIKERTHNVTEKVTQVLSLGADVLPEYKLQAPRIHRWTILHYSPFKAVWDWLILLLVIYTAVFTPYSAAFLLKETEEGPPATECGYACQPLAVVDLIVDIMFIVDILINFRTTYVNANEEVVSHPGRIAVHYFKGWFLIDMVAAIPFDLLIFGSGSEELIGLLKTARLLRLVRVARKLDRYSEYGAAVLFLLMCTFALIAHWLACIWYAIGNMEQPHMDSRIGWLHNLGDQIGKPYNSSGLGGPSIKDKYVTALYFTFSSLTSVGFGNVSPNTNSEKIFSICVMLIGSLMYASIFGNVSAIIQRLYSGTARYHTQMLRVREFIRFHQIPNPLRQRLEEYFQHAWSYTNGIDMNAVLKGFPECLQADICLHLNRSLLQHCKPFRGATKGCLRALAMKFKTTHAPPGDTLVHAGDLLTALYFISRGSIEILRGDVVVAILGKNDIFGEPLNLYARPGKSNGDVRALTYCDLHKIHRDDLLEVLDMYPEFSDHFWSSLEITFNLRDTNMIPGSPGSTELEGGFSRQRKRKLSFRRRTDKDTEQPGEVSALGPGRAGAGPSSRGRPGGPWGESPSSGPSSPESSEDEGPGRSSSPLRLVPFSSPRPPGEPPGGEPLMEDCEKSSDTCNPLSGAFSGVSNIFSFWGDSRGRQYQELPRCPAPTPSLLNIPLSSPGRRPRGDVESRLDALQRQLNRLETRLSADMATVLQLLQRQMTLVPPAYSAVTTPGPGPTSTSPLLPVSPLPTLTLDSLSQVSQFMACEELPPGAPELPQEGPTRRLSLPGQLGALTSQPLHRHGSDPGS
Protocol: The HEK 293 cell line (K1236) stably expressing hERG was purchased from Invitrogen. Cells were cultured in 85% DMEM, 10% dialyzed FBS, 0.1 mM NEAA, 25 mM HEPES, 100 U/mL penicillin-streptomycin, 5 μg/mL blasticidin and 400 μg/mL geneticin. Cells were split using TrypLE™ about three times a week, and maintained at a confluence of about 40% to about 80%. Before measurement, cells were cultured at a density of 5×10^5 in a 6 cm culture dish and induced with 1 μg/mL doxycycline for 48 hours.
Extracellular solution (mM): 132 NaCl, 4 KCl, […], 0.5 MgCl2, 11.1 glucose, 10 HEPES (pH 7.35 adjusted with NaOH);
Intercellular solution (mM): 140 KCl, 2 MgCl2, 10 EGTA, 10 HEPES, 5 MgATP (pH 7.35 adjusted with KOH).
The test compounds were formulated in DMSO to prepare a stock solution with a final concentration of 10 mM.
Then, the stock solution of each compound was diluted with DMSO in a 1:3 serial dilution to prepare five intermediate solutions with concentrations of 3, 1, 0.33, 0.12, 0.04 mM or 3.33, 1.11, 0.37, 0.12 mM, respectively.
Before testing, the final working solutions were prepared by diluting the intermediate solutions 1000 times with the extracellular solution. The concentration of DMSO in the working solutions was within a range around 0.1%.
The working solutions at five different concentrations of 3, 1, 0.33, 0.12 and 0.04 μM were used to determine the potential inhibition effect of the compounds on hERG channels and to fit concentration-response curves and calculate IC50.
The coverslip was removed from the cell culture dish and placed on a microscope stage.
A 10× objective was used to locate cells to be observed. An electrode tip was located under the microscope using the 10× objective by focusing above the plane of the cells. Once the tip was in focus, the electrode was advanced downward towards the cells under rough control of the manipulator, while the objective was moved so as to keep the tip in focus.
When the electrode was directly over a cell, the objective was switched to a 40× objective and fine control of the manipulator was used to enable to gradually approach the cell surface.
With gentle suction through a side port of an electrode holder, a giga-ohm seal was formed.
Cfast was used to eliminate the capacitive current consistent with the voltage step. Brief and strong suction was applied repeatedly until the membrane patch ruptured and the whole-cell configuration was obtained.
At this point, membrane potential was set to −60 mV in order to ensure that hERG channels were not open. Then, Cslow on the amplifier was used to remove the spikes of capacitive current.
Holding potential was set to −90 mV for 500 ms. Current was recorded at 20 kHz and filtering was carried out at 10 kHz. Leak current was tested at −80 mV for 500 ms.
The hERG current was elicited by depolarizing at +30 mV for 4.8 seconds, and then the voltage was restored to −50 mV for 5.2 seconds to remove the inactivation and observe the deactivating tail current. The maximum of tail current size was used to determine hERG current amplitude.
Current was recorded for 120 seconds to evaluate the current stability. Only stable cells with recording parameters above thresholds were used for drug administrations.
Firstly, vehicle control was applied to the cells to establish the baseline. […] The hERG current in the presence of the test compound was recorded for about 5 minutes to reach a steady state, and then 5 sweeps were captured. For dose-response testing, multiple compounds were applied to the cells cumulatively from low to high concentrations (multiple compounds were detected simultaneously). The positive control, Dofetilide at a concentration of 150 nM, was also applied to each cell post hERG current measurement at the highest concentration of the test compound, which was used as an internal low control for normalization of percentage inhibition. […]

[3] = UV-VIS absorption spectra (optical property test); assay type: physicochemical; conditions: 10 μM, DMSO solution; for Absorbance × 10^4: at maximum absorption peak
Protocol: The UV-VIS absorption spectra of the compounds (10 μM, DMSO solution) were detected using Shimadzu UV2600 spectrophotometer, and the maximum absorption peak and absorbance of each compound were obtained.

[4] = tested on: human bladder cancer cell line UM-UC-3; test: In vitro imaging effect test with addition of BSP, UM-UC-3; assay type: cell-based; conditions: 250 μM BSP, compound 1-20 μM with surfactin 1:5, 30 minutes
Protocol: UM-UC-3 (1.5×10^4/well) were cultured in EMEM medium (containing 10% fetal bovine serum (FBS) and 1% antibiotics (100 U/mL penicillin and 100 U/mL streptomycin)) and seeded in a 96-well plate in advance. The plate was cultured in a 5% CO2 cell culture incubator at 37° C. overnight. The following day, the culture medium was sucked away, and 250 μM of BSP was added to the test wells and preconditioned for 10 minutes, followed by addition of the culture medium containing an appropriate concentration (1-20 μM) of the compound and surfactin (the molar ratio of the test compound to the surfactin being 1:5) with or without 250 μM of BSP, and then incubated for 30 minutes. The cells were rinsed three times with PBS solution, and the near-infrared fluorescence intensity in the bladder cancer cells was observed using an integrated fluorescence microscopic imaging system from Keyence. The conditions for near-infrared photography were Ex=775/50 nm and Em=845/55 nm.

[5] = tested on: RT112 tumor; test: Tumor/background ratio in subcutaneous RT112 tumor model mice; assay type: in vivo; conditions: 2 mpk intraperitoneal, 48 hours after injection
From the text: The subcutaneous tumor model mice inoculated with RT112 tumor were selected. Each compound was administrated at a dose of 2 mpk, and intraperitoneally injected.

[6] = tested on: RT112 tumor; conditions: 2 mg/kg or 0.4 mg/kg intraperitoneal, 48 hours after injection
Protocol: All animal experiments were conducted exactly in accordance with the guidelines for the care and use of animals issued by the regional animal committee. A mouse model of xenograft RT112 tumor was established by subcutaneous injection of RT112 cell suspension (2×10^6 cells/mouse, 0.1 ml PBS) into the upper right limb of 8- to 10-week-old BALB/C female nude mice (20 to 25 g). BABL/c nude mice (15 to 20 g) were purchased from Beijing Vital River Laboratory Animal Technology Co., Ltd. For in vivo near-infrared fluorescence (NIRF) imaging, the RT112 tumor-bearing mice were intraperitoneally injected with different doses of free compounds (2 mg/kg or 0.4 mg/kg), respectively. At 48 hours after injection, near-infrared imaging was performed using an IVIS Lumina spectroscopic imaging system (excitation/emission, 780/845 nm).

| SMILES | solubility kinetic at 2 h [1] | pIC50 [2] | Absorption peak [3] | Absorbance × 10^4 [3] | Uptake by UM-UC-3 with or without BSP [4] | Tumor/background ratio [5] | Enrichment at the tumor sites (NIR fluorescence) [6] |
| --- | --- | --- | --- | --- | --- | --- | --- |
| C[N+]1=C(/C=C/C2=C(Cl)C(=C/C=C3/N(CCCCCC(=O)O)c4ccccc4C3(C)C)/CC2)C(C)(C)c2ccccc21 [Example 10, 2-((E)-2-((E)-3-(2-((E)-1-(5-carboxypentyl)-3,3-dimethylindolin-2-ylidene)ethenyl)-2-chlorocyclopent-1-en-1-yl)ethenyl)-1,3,3-trimethyl-3H-indol-1-ium Chloride] | 26 µg/mL | 5.88 | 821 nm | 2.08 | may be weakened or enhanced by BSP | 3.3 | specifically enriched at the tumor sites |
| CC[N+]1=C(/C=C/C2=C(Cl)C(=C/C=C3/N(CCOCCC(=O)Oc4ccccc4)c4ccccc4C3(C)C)/CCC2)C(C)(C)c2ccccc21 [Example 7, 2-((E)-2-((E)-2-chloro-3-(2-((E)-3,3-dimethyl-1-(2-(3-oxo-3-phenoxypropoxy)ethyl)indolin-2-ylidene)ethenyl)cyclohex-1-en-1-yl)ethenyl)-1-ethyl-3,3-dimethyl-3H-indol-1-ium Trifluoroacetate] | – | – | 794.5 nm | 1.92 | may be weakened or enhanced by BSP | – | specifically enriched at the tumor sites |
